According to US20260256792A1, “TREATMENT OF CHRONIC SPONTANEOUS URTICARIA BY ADMINISTERING (R)-2-[3-[4-AMINO-3-(2-FLUORO-4-PHENOXY-PHENYL)PYRAZOLO[3,4-D]PYRIMIDIN-1-YL]PIPERIDINE-1-CARBONYL]-4-METHYL-4-[4-(OXETAN-3-YL)PIPERAZIN-1-YL]PENT-2-ENENITRILE” (priority 2023, published 2026):

Tested on: angioedema in CSU patients
Assay: Phase 2 CSU study: angioedema activity score over 7 days (AAS7)
Assay type: in vivo, human
Settings: 400 mg BID; for AAS7 = 0, OR (95% CI) for rilzabrutinib vs. placebo / AAS7 = 0, RRD (%) for rilzabrutinib vs. placebo (95% CI) / AAS7 Post-baseline Mean (SD) / Participants with AAS7 = 0, Responder n (%) / AAS7 % Change difference for rilzabrutinib vs. placebo LS Mean (95% CI) / AAS7 % Change from baseline LS Mean (SE) / AAS7 Change difference for rilzabrutinib vs. placebo LS Mean (95% CI) / AAS7 Change from baseline LS Mean (SE) / AAS7 = 0, Non-responder n (%): angioedema at baseline; for Non-responder n (%), AAS7 = 0 / OR (95% CI) for rilzabrutinib vs. placebo, AAS7 = 0 / Responder n (%), AAS7 = 0 / RRD (%) for rilzabrutinib vs. placebo (95% CI), AAS7 = 0: outlier removed
Source text: The study comprises a 12 week, randomized, double-blind, placebo-controlled, multi-center, dose-ranging efficacy and safety phase, followed by a 40 week open label extension (OLE) phase (see FIG. 1). The study consists of three phases and an optional OLE phase. […] The weekly angioedema activity score (AAS7) was proposed as a tertiary endpoint. […] Patients were to complete the AAS using the e-diary. The e-diary was to be used once daily on the same time of each day recording of participant's answers to the angioedema activity score over 7 days (AAS7) questionnaire.

Question: `CC(C)(C=C(C#N)C(=O)N1CCC[C@@H](n2nc(-c3ccc(Oc4ccccc4)cc3F)c3c(N)ncnc32)C1)N1CCN(C2COC2)CC1` [rilzabrutinib, (R)-2-[3-[4-amino-3-(2-fluoro-4-phenoxy-phenyl)pyrazolo[3,4-d]pyrimidin-1-yl]piperidine-1-carbonyl]-4-methyl-4-[4-(oxetan-3-yl)piperazin-1-yl]pent-2-enenitrile] was tested. Which “AAS7 = 0, OR (95% CI) for rilzabrutinib vs. placebo” value (“AAS7 = 0, OR (95% CI)” below) (Week 4, omalizumab-naïve) did it give?
Answer: 2.118

Question: And the “AAS7 = 0, RRD (%) for rilzabrutinib vs. placebo (95% CI)” value (shortened to “AAS7 = 0, RRD (%) … (95% CI)”) (Week 4, omalizumab-naïve)?
Answer: 16.8 %

Question: And the “AAS7 Post-baseline Mean (SD)” value (Week 4, omalizumab-naïve)?
Answer: 14.79 (17.89)

Question: What about the “Participants with AAS7 = 0, Responder n (%)” value (from here on “Participants … (%)”) (Week 4, omalizumab-naïve) of the same compound?
Answer: 11 (42.3) n (%)

Question: And the “AAS7 % Change difference for rilzabrutinib vs. placebo LS Mean (95% CI)” value (shortened to “AAS7 % Change difference … (95% CI)”) (Week 5, ITT)?
Answer: −14.36 (−40.13, 11.41) %

Question: What about the “AAS7 % Change from baseline LS Mean (SE)” value (Week 5, ITT) of the same compound?
Answer: −68.19 (10.08) %

Question: What about the “AAS7 Change difference for rilzabrutinib vs. placebo LS Mean (95% CI)” value (“AAS7 Change difference … (95% CI)” below) (Week 5, ITT) of the same compound?
Answer: −6.53 (−17.51, 4.44)

Question: What about the “AAS7 Change from baseline LS Mean (SE)” value (Week 5, ITT) of the same compound?
Answer: −36.13 (4.29)

Question: What about the “AAS7 Post-baseline Mean (SD)” value (Week 5, ITT) of the same compound?
Answer: 12.95 (20.09)

Question: And the “Non-responder n (%), AAS7 = 0” value (Week 5, omalizumab-naïve)?
Answer: 14 (40.0) n (%)

Question: What about the “OR (95% CI) for rilzabrutinib vs. placebo, AAS7 = 0” value (Week 5, omalizumab-naïve) of the same compound?
Answer: 1.574

Question: And the “Responder n (%), AAS7 = 0” value (Week 5, omalizumab-naïve)?
Answer: 21 (60.0) n (%)

Question: What about the “AAS7 % Change difference … (95% CI)” value (Week 5, omalizumab-naïve) of the same compound?
Answer: −10.97 (−38.45, 16.50) %

Question: What about the “AAS7 = 0, Non-responder n (%)” value (Week 5, omalizumab-naïve) of the same compound?
Answer: 13 (50.0) n (%)

Question: What about the “AAS7 = 0, OR (95% CI)” value (Week 5, omalizumab-naïve) of the same compound?
Answer: 2.390

Question: And the “AAS7 = 0, RRD (%) … (95% CI)” value (Week 5, omalizumab-naïve)?
Answer: 22.3 %

Question: And the “AAS7 Post-baseline Mean (SD)” value (Week 5, omalizumab-naïve)?
Answer: 13.98 (20.55)

Question: And the “Participants … (%)” value (Week 5, omalizumab-naïve)?
Answer: 13 (50.0) n (%)

Question: What about the “AAS7 % Change difference … (95% CI)” value (Week 6, ITT) of the same compound?
Answer: −23.55 (−50.40, 3.31) %

Question: And the “AAS7 Change difference … (95% CI)” value (Week 6, ITT)?
Answer: −10.15 (−21.84, 1.54)

Question: What about the “AAS7 Change from baseline LS Mean (SE)” value (Week 6, ITT) of the same compound?
Answer: −36.76 (4.50)

Question: What about the “AAS7 Post-baseline Mean (SD)” value (Week 6, ITT) of the same compound?
Answer: 12.28 (18.70)

Question: What about the “Non-responder n (%), AAS7 = 0” value (Week 6, omalizumab-naïve) of the same compound?
Answer: 17 (48.6) n (%)

Question: What about the “OR (95% CI) for rilzabrutinib vs. placebo, AAS7 = 0” value (Week 6, omalizumab-naïve) of the same compound?
Answer: 1.118

Question: What about the “RRD (%) for rilzabrutinib vs. placebo (95% CI), AAS7 = 0” value (“RRD (%) … (95% CI), AAS7 = 0” for short) (Week 6, omalizumab-naïve) of the same compound?
Answer: 2.9 %

Question: What about the “Responder n (%), AAS7 = 0” value (Week 6, omalizumab-naïve) of the same compound?
Answer: 18 (51.4) n (%)

Question: What about the “AAS7 % Change difference … (95% CI)” value (Week 6, omalizumab-naïve) of the same compound?
Answer: −20.62 (−49.95, 8.72) %

Question: And the “AAS7 = 0, Non-responder n (%)” value (Week 6, omalizumab-naïve)?
Answer: 15 (57.7) n (%)

Question: What about the “AAS7 = 0, OR (95% CI)” value (Week 6, omalizumab-naïve) of the same compound?
Answer: 1.828

Question: What about the “AAS7 = 0, RRD (%) … (95% CI)” value (Week 6, omalizumab-naïve) of the same compound?
Answer: 13.6 %

Question: And the “AAS7 Post-baseline Mean (SD)” value (Week 6, omalizumab-naïve)?
Answer: 13.26 (19.12)

Question: And the “Participants … (%)” value (Week 6, omalizumab-naïve)?
Answer: 11 (42.3) n (%)

Question: And the “AAS7 % Change difference … (95% CI)” value (Week 7, ITT)?
Answer: −25.42 (−54.97, 4.13) %

Question: And the “AAS7 % Change from baseline LS Mean (SE)” value (Week 7, ITT)?
Answer: −71.37 (11.45) %

Question: And the “AAS7 Change from baseline LS Mean (SE)” value (Week 7, ITT)?
Answer: −37.72 (4.37)

Question: And the “AAS7 Post-baseline Mean (SD)” value (Week 7, ITT)?
Answer: 13.39 (19.19)

Question: What about the “Non-responder n (%), AAS7 = 0” value (Week 7, omalizumab-naïve) of the same compound?
Answer: 18 (51.4) n (%)

Question: What about the “OR (95% CI) for rilzabrutinib vs. placebo, AAS7 = 0” value (Week 7, omalizumab-naïve) of the same compound?
Answer: 1.022

Question: What about the “RRD (%) … (95% CI), AAS7 = 0” value (Week 7, omalizumab-naïve) of the same compound?
Answer: 0.6 %

Question: What about the “Responder n (%), AAS7 = 0” value (Week 7, omalizumab-naïve) of the same compound?
Answer: 17 (48.6) n (%)

Question: What about the “AAS7 % Change difference … (95% CI)” value (Week 7, omalizumab-naïve) of the same compound?
Answer: −23.13 (−55.14, 8.88) %

Question: And the “AAS7 % Change from baseline LS Mean (SE)” value (Week 7, omalizumab-naïve)?
Answer: −70.13 (12.07) %

Question: And the “AAS7 = 0, Non-responder n (%)” value (Week 7, omalizumab-naïve)?
Answer: 15 (57.7) n (%)

Question: And the “AAS7 = 0, OR (95% CI)” value (Week 7, omalizumab-naïve)?
Answer: 1.515

Question: And the “AAS7 Post-baseline Mean (SD)” value (Week 7, omalizumab-naïve)?
Answer: 14.38 (19.63)

Question: What about the “Participants … (%)” value (Week 7, omalizumab-naïve) of the same compound?
Answer: 11 (42.3) n (%)

Question: What about the “AAS7 % Change difference … (95% CI)” value (Week 8, ITT) of the same compound?
Answer: −29.34 (−59.45, 0.76) %

Question: What about the “AAS7 % Change from baseline LS Mean (SE)” value (Week 8, ITT) of the same compound?
Answer: −81.40 (11.62) %

Question: What about the “AAS7 Change difference … (95% CI)” value (Week 8, ITT) of the same compound?
Answer: −13.31 (−24.25, −2.37)

Question: What about the “AAS7 Change from baseline LS Mean (SE)” value (Week 8, ITT) of the same compound?
Answer: −41.63 (4.21)

Question: And the “AAS7 Post-baseline Mean (SD)” value (Week 8, ITT)?
Answer: 9.20 (16.24)

Question: And the “Non-responder n (%), AAS7 = 0” value (Week 8, omalizumab-naïve)?
Answer: 14 (40.0) n (%)

Question: And the “OR (95% CI) for rilzabrutinib vs. placebo, AAS7 = 0” value (Week 8, omalizumab-naïve)?
Answer: 1.991

Question: And the “RRD (%) … (95% CI), AAS7 = 0” value (Week 8, omalizumab-naïve)?
Answer: 17.0 %

Question: And the “Responder n (%), AAS7 = 0” value (Week 8, omalizumab-naïve)?
Answer: 21 (60.0) n (%)

Question: What about the “AAS7 % Change difference … (95% CI)” value (Week 8, omalizumab-naïve) of the same compound?
Answer: −30.39 (−63.25, 2.47) %

Question: What about the “AAS7 % Change from baseline LS Mean (SE)” value (Week 8, omalizumab-naïve) of the same compound?
Answer: −80.38 (12.36) %

Question: And the “AAS7 = 0, Non-responder n (%)” value (Week 8, omalizumab-naïve)?
Answer: 13 (50.0) n (%)

Question: What about the “AAS7 = 0, OR (95% CI)” value (Week 8, omalizumab-naïve) of the same compound?
Answer: 2.829
